Where “and” joins values, the source holds several entries; their conditions need not be identical. Identical values can stand only once. Like-named read-outs stand apart in the source and are kept apart here. Marks after values point to notes of the source that are not given here. One block for each molecule: values may come before it.
What was measured:
cytochrome P450 OleT [1] = molecular target: T1, cytochrome P450 OleT (Jeotgalicoccus sp. ATCC 8456, UniProt E9NSU2); assay type: biochemical; details: for % metabolized: 5 μM OleT, 500 μM fatty acid; for % metabolized / product distribution (%) alcohols: slow H2O2 addition; for product distribution (%) 1-alkene: determined from subtraction of product alcohols from the total FA metabolized; for alcohol regiospecificity α: share of alcohols hydroxylated at Cα; for alcohol regiospecificity β: share of alcohols hydroxylated at Cβ; for product distribution (%) alcohols: share of total product
cytochrome P450 OleT [2] = molecular target: T1, cytochrome P450 OleT; details: for maximal high-spin conversion: UV-vis titration, low- to high-spin conversion
cytochrome P450 OleT [3] = molecular target: T1, cytochrome P450 OleT; assay type: biochemical
cytochrome P450 OleT [4] = assay type: biochemical, Jeotgalicoccus sp. ATCC 8456
cytochrome P450 OleT [5] = molecular target: T1, cytochrome P450 OleT; experiment: Stopped flow transient kinetics of OleT:fatty acid complexes with H2O2; assay type: biochemical
cytochrome P450 OleT [6] = molecular target: T1, cytochrome P450 OleT; details: read-out: dissociation constant reported for EA; reported value; ref [2],[13]; cited from earlier work
cytochrome P450 OleT [7] = molecular target: T1, cytochrome P450 OleT; details: in vitro; ref [2]–[4]; cited from earlier work
cytochrome P450 OleT [8] = molecular target: T1, cytochrome P450 OleT; details: ref [29], cited from earlier work
cytochrome P450 OleT [9] = molecular target: T1, cytochrome P450 OleT; experiment: Guaiacol oxidation to tetraguaiacol by fatty acid-activated OleT; assay type: biochemical; details: DA-d19 compared with protiated DA as decoy
[10] = 5 μM OleT, 200 mM KPi pH 7.5, 200 mM NaCl, absorbance changes at 392 and 417 nm
[11] = in the presence of norcarane, 10 mM H2O2, 440 nm, 4 °C
[12] = in the absence of norcarane, 10 mM H2O2, 440 nm, 4 °C

Compound: CCCCCCCC(=O)O [C8:0]
% metabolized (cytochrome P450 OleT [1]): 100%
product distribution (%) 1-alkene (cytochrome P450 OleT [1]): 88.4 ± 0.4 ^b %
alcohol regiospecificity α (cytochrome P450 OleT [1]): 11.3 ± 2.3% α
alcohol regiospecificity β (cytochrome P450 OleT [1]): 89.0 ± 5.3% β
product distribution (%) alcohols (cytochrome P450 OleT [1]): 11.6 ± 0.8%
Kd (cytochrome P450 OleT [2]; [10]): 134 ± 11 µM
maximal high-spin conversion (cytochrome P450 OleT [2]): 25%

product yield (%) ring-closed (cytochrome P450 OleT [3]; in the presence of DA-d19): 41.9% and 40.1%
product yield (%) ring-opened (cytochrome P450 OleT [3]; in the presence of DA-d19): 58.1% and 59.9%
radical lifetime (cytochrome P450 OleT [3]; per trial, from product ratio and krearr = 3 × 10^11 s−1): 2.4 ps
Compound: CC1CC1c1ccccc1 (centres unmarked) [methylcyclopropane]

Compound: CCCCCCCCCCCC(=O)O [C12:0, lauric acid]
% metabolized (cytochrome P450 OleT [1]): 98.3 ± 0.2%
alcohol regiospecificity α (cytochrome P450 OleT [1]): 7.0 ± 1.3% α
alcohol regiospecificity α (cytochrome P450 OleT [1]; listed as LA): 7%
alcohol regiospecificity β (cytochrome P450 OleT [1]): 71.5 ± 15.5% β
alcohol regiospecificity γ (cytochrome P450 OleT [1]; share of alcohols hydroxylated at Cγ): 21.5 ± 4.4% γ
product distribution (%) 1-alkene (cytochrome P450 OleT [4]; determined from direct quantitation): 61.4 ± 7.6 ^a %
product distribution (%) alcohols (cytochrome P450 OleT [4]; slow H2O2 addition, share of total product): 38.6 ± 7.6%
Kd (cytochrome P450 OleT [2]): 2.8 ± 0.4 µM
maximal high-spin conversion (cytochrome P450 OleT [2]): 61%

radical lifetime (cytochrome P450 OleT [3]; from averaged ratio of rearranged products to norcaranol (G + E)): ~ 35 ps
product yield (%) F (cytochrome P450 OleT [3]; in the presence of DA-d19): 1.9%
product yield (%) I (cytochrome P450 OleT [3]; in the presence of DA-d19): 0.55%
product yield (%) C (cytochrome P450 OleT [3]; in the presence of DA-d19, 4-hydroxy-2-norcarene): 3.8%
product yield (%) cation (cytochrome P450 OleT [3]; in the presence of DA-d19, cation-rearranged product 3-cycloheptenol (A)): 2.6% and 1.4%
product yield (%) E (cytochrome P450 OleT [3]; in the presence of DA-d19, endo-2-norcaranol): 51.5% and 47.6%
product yield (%) G (cytochrome P450 OleT [3]; in the presence of DA-d19, exo-2-norcaranol): 38.9% and 33.4%
product yield (%) radical (cytochrome P450 OleT [3]; in the presence of DA-d19, radical-rearranged product 3-hydroxymethylcyclohexene (D)): 0.75% and 0.47%
radical lifetime (cytochrome P450 OleT [3]; per trial, from product ratio and krearr = 2 × 10^8 s−1): 42 ps and 29 ps
Compound: C1CCC2CC2C1 (centres unmarked) [norcarane, bicyclo[4.1.0]heptane]

Compound: [2H]C([2H])([2H])C([2H])([2H])C([2H])([2H])C([2H])([2H])C([2H])([2H])C([2H])([2H])C([2H])([2H])C([2H])([2H])C([2H])([2H])C([2H])([2H])C([2H])([2H])C([2H])([2H])C([2H])([2H])C([2H])([2H])C([2H])([2H])C([2H])([2H])C([2H])([2H])C([2H])([2H])C([2H])([2H])C(=O)O [EA-d39, perdeuterated eicosanoic acid]
Ole-II decay rate constant (RRT2) (cytochrome P450 OleT [5]; [11]): 10 ± 2 s⁻¹
Ole-II formation (Ole-I decay) rate constant (RRT1) (cytochrome P450 OleT [5]; [11]): 83 ± 3 s⁻¹

Compound: CCCCCCCCCCCCCCCCCCCC(=O)O [EA, eicosanoic acid]
Kd (cytochrome P450 OleT [6]): < 1 µM
chemoselectivity for 1-nonadecene production (cytochrome P450 OleT [7]): ≥ 95%
Ole-II decay (cytochrome P450 OleT [8]; at 5 °C, decarboxylation of EA): ~ 10 s^−1
substrate 2H KIE (kH/kD) for the decay of Ole-I (cytochrome P450 OleT [8]): > 8

% metabolized (cytochrome P450 OleT [1]): 100%
product distribution (%) 1-alkene (cytochrome P450 OleT [1]): 90.0 ± 0.8 ^b %
alcohol regiospecificity β (cytochrome P450 OleT [1]): 100% β
product distribution (%) alcohols (cytochrome P450 OleT [1]): 10.0 ± 0.8%
Kd (cytochrome P450 OleT [2]): 25 ± 8 µM
maximal high-spin conversion (cytochrome P450 OleT [2]): 36%
Compound: CCCCCCCCCC(=O)O [C10:0, decanoic acid]

Compound: [2H]C([2H])([2H])C([2H])([2H])C([2H])([2H])C([2H])([2H])C([2H])([2H])C([2H])([2H])C([2H])([2H])C([2H])([2H])C([2H])([2H])C([2H])([2H])C([2H])([2H])C(=O)O [LA-d23]
Ole-II decay rate constant (RRT2) (cytochrome P450 OleT [5]; [12]): 10.4 ± 0.5 s⁻¹
Ole-II formation (RRT1) (cytochrome P450 OleT [5]; [12]): 105 ± 10 s⁻¹
Ole-II decay rate constant (RRT2) (cytochrome P450 OleT [5]; [11]): 12.5 ± 0.6 s⁻¹
Ole-II formation (Ole-I decay) rate constant (RRT1) (cytochrome P450 OleT [5]; [11]): 66 ± 3 s⁻¹

Compound: [2H]C([2H])([2H])C([2H])([2H])C([2H])([2H])C([2H])([2H])C([2H])([2H])C([2H])([2H])C([2H])([2H])C([2H])([2H])C([2H])([2H])C(=O)O [DA-d19, perdeuterated decanoic acid]
Ole-I decay rate constant (cytochrome P450 OleT [5]; asymptote of RRT1 vs H2O2 plot, 4 °C): ~ 60 s^−1
Ole-II decay rate constant (cytochrome P450 OleT [5]; independent of H2O2, 4 °C): ~10 s⁻¹
product yields for radical clock substrates by decoy fatty acid (cytochrome P450 OleT [3]; comparison of decoy fatty acids): highest
improvement of guaiacol oxidation rate (cytochrome P450 OleT [9]): approximately 5 fold

Compound: CCCCCC(=O)O [C6:0]
Kd (cytochrome P450 OleT [2]; [10]): 164 ± 15 µM
maximal high-spin conversion (cytochrome P450 OleT [2]): 19%
